Data published in patent US20250129021A1, “SMALL MOLECULE PROTEIN SYNTHESIS MODULATORS” (Interdict Bio, Inc., priority 2023, published 2025).
Like-named read-outs stand apart in the source and are kept apart here.

What was measured:
[1] = test system: HPAF-II; experiment: Cell viability (CellTiter-Fluor), HPAF-II; type: cell-based; details: Homo sapiens, 24-72 hrs
Procedure: (§1) Count and dispense 2,000-10,000 cells per well (100 μL volume) in black 96-well tissue culture microplate and let cells adhere overnight. Add compound dissolved in 100% DMSO to each well as needed and incubate cells in standard culture conditions for 24-72 hrs. Final DMSO concentration in each well should be 0.1-0.5%. At the desired time point, gently aspirate compound containing media and replace with PBS to wash. Repeat wash step for 2 total washes. Remove PBS and add 100 μL CellTiter-Fluor reagent (Promega) reagent to each well. Seal plate and incubate 1 hr at room temperature with orbital shaking. Analyze fluorescence using plate reader to quantify viable cells compared with vehicle (DMSO) control.

[2] = test system: KATO-III; experiment: Cell viability (CellTiter-Fluor), KATO-III; type: cell-based; details: Homo sapiens, 24-72 hrs
Procedure: as §1

[3] = test system: NCI-H1915; experiment: Cell viability (CellTiter-Fluor), NCI-H1915; type: cell-based; details: 24-72 hrs
Procedure: as §1

[4] = test system: MYC; experiment: In vitro transcription-translation (IVTT) assay, MYC reporter; type: biochemical; details: HeLa S3 lysate, 2 hrs at 30° C.
Outline: (§2)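 Reporter: mCherry, P2A, then 3×FLAG-target peptide-sfGFP fusion, IRES-initiated; HeLa S3 lysate IVTT; cpd dilutions 30 μM−0.1 μM half-log in 100% DMSO (dilution-plate conc); DNA added last; 2 h, 30° C; PBS quench.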

[5] = test system: LS411N; experiment: Cell viability (CellTiter-Fluor), LS411N; type: cell-based; details: Homo sapiens, LS-411N, 24-72 hrs
Procedure: as §1

[6] = test system: KRAS G12D; experiment: In vitro transcription-translation (IVTT) assay, KRAS G12D reporter; type: biochemical; details: HeLa S3 lysate, sfGFP/mCherry ratio, 2 hrs at 30° C.
Outline: as §2

[7] = test system: MCL-1; experiment: In vitro transcription-translation (IVTT) assay, MCL-1 reporter; type: biochemical; details: HeLa S3 lysate, sfGFP/mCherry ratio
Outline: as §2

[8] = test system: MCF7; experiment: Cell viability (CellTiter-Fluor), MCF7; type: cell-based; details: Homo sapiens, 24-72 hrs
Procedure: as §1

[9] = test system: T47D; experiment: Cell viability (CellTiter-Fluor), T47D; type: cell-based; details: Homo sapiens, 24-72 hrs
Procedure: as §1

[10] = test system: KLE; experiment: Cell viability (CellTiter-Fluor), KLE; type: cell-based; details: Homo sapiens, 24-72 hrs
Procedure: as §1

[11] = test system: HEK 293T; experiment: Cell viability (CellTiter-Fluor), HEK 293T; type: cell-based; details: Homo sapiens, 24-72 hrs
Procedure: as §1

[12] = test system: HCC38; experiment: Cell viability (CellTiter-Fluor), HCC38; type: cell-based; details: Homo sapiens, 24-72 hrs
Procedure: as §1

[13] = test system: MS751; experiment: Cell viability (CellTiter-Fluor), MS751; type: cell-based; details: 24-72 hrs
Procedure: as §1

[14] = test system: ALK; experiment: In vitro transcription-translation (IVTT) assay, ALK reporter; type: biochemical; details: HeLa S3 lysate, sfGFP/mCherry ratio, 2 hrs at 30° C.
Outline: as §2

[15] = test system: HEPG2; experiment: Cell viability (CellTiter-Fluor), HEPG2; type: cell-based; details: Homo sapiens, 24-72 hrs
Procedure: as §1

[16] = test system: BCL-2; experiment: In vitro transcription-translation (IVTT) assay, BCL-2 reporter; type: biochemical; details: HeLa S3 lysate, sfGFP/mCherry ratio, 2 hrs at 30° C.
Outline: as §2

[17] = test system: CCND1; experiment: In vitro transcription-translation (IVTT) assay, CCND1 reporter; type: biochemical; details: HeLa S3 lysate, sfGFP/mCherry ratio
Outline: as §2

[18] = test system: STING; experiment: In vitro transcription-translation (IVTT) assay, STING reporter; type: biochemical; details: HeLa S3 lysate, sfGFP/mCherry ratio
Procedure: (§3) In vitro transcription-translation assay setup: Each assay includes a master mix containing lysate and shared components, a 96-well plate containing compound titrations for testing, a 96-well DNA plate with reporter constructs to be tested, 96-well skirted PCR plates, and 96-well flat-bottom, black, fluorescent assay plates. Reaction materials setup: (A) Master mix—15 mL conical tube (3 mL of HeLa S3 Lysate described above; 0.6 mL of ThermoFisher Accessory Proteins (#88882); 1.2 ml of ThermoFisher Reaction Mix (#88882); 0.54 mL of nuclease-free Water); (B) 96-Well Master Mix+Compound Plate (Half-log dilutions (30 μM−0.1 μM) of 4 compounds of interest are prepared in 100% DMSO); 96-Well DNA Plate (Five DNA constructs are plated into single columns within the plate. Row 1 of the column contains nuclease free H2O, all other wells contain 110 ng/μL plasmid DNA). Reactions are started by mixing 155 μL of master mix and 3.5 μL of compound serial dilutions, then 9.1 μL of master mix+compound mixture is aliquoted across 5 96-well plates. Reactions begin with final addition of 2 μL of DNA for a 11.1 μL reaction volume in each well. The entire plate is sealed, and incubated for 2 hrs at 30° C. After 2 hrs, quench the assay using 45 μL of PBS, and transfer 50 μL to a flat-bottom black microplate Quantify the sfGFP and mCherry signals from each well on each plate, taking 3 reads of each plate, and perform data analysis below.
(§4) In vitro transcription-translation assay data analysis: Each plate is read three times in channels for both sfGFP and mCherry signals. The average signal across these 3 reads is then calculated for further analysis. Control wells containing no DNA reporter are subtracted from reporter wells in the same column to remove auto-fluorescence of the lysate. Then, the ratio of sfGFP/mCherry is calculated per well, and these ratios are averaged across the triplicate experiments on the same plate. Finally, the ratio of each titration concentration is normalized to the no drug control to create the normalized stalling metric. The error on this measurement is determined by propagating error through the averaging and normalization steps. Values are plotted and fit for IC50 determination for each test sequence and titration of compound.

[19] = test system: CCNTB1; experiment: In vitro transcription-translation (IVTT) assay, CCNTB1 reporter; type: biochemical; details: HeLa S3 lysate, sfGFP/mCherry ratio
Outline: (§5)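 Cell-free HeLa S3 lysate reactions expressing sfGFP/mCherry reporter constructs ran 2 h at 30 °C with compound from half-log DMSO series (30 μM–0.1 μM as prepared), then were quenched with PBS. No-DNA background was subtracted, and the sfGFP/mCherry ratio was normalized to the no-drug control and fit for IC50.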

[20] = test system: JAK1; experiment: In vitro transcription-translation (IVTT) assay, JAK1 reporter; type: biochemical; details: HeLa S3 lysate, sfGFP/mCherry ratio
Procedure: as §3, §4

[21] = test system: NFKB1; experiment: In vitro transcription-translation (IVTT) assay, NFKB1 reporter; type: biochemical; details: HeLa S3 lysate, sfGFP/mCherry ratio
Outline: as §5

[22] = test system: cGAS; experiment: In vitro transcription-translation (IVTT) assay, cGAS reporter; type: biochemical; details: HeLa S3 lysate, sfGFP/mCherry ratio
Procedure: as §3, §4

[23] = IVTT assay, MYC reporter, normalized sfGFP/mCherry ratio, half-log dilutions 30 μM-0.1 μM
[24] = IVTT assay, read-out: MCL1 IC50

SMILES	IC50 [1]	IC50 [3]	IC50 ([4]; sfGFP/mCherry ratio)	IC50 [5]	IC50 ([7]; 2 hrs at 30° C.)	IC50 [8]	IC50 [10]	IC50 [11]	IC50 [18]	IC50 [19]	IC50 [4, 23]	IC50 [20]	IC50 [7, 24]	IC50 [21]	IC50 [22]	IC50 ([17]; IVTT assay)	also measured
COc1ccc(C[C@H]2NC[C@H](O)[C@H]2OC(=O)NCC2CC2)cc1 [V187189, (2R,3S,4S)-4-hydroxy-2-[(4-methoxyphenyl)methyl]pyrrolidin-3-yl N-(cyclopropylmethyl)carbamate; trifluoroacetic acid]	0.25 to 1 µM	0.25 to 1 µM	< 10 µM	< 0.25 µM	< 10 µM	0.25 to 1 µM	0.25 to 1 µM	< 0.25 µM	–	–	–	–	–	–	–	–	IC50 [2]: 0.25 to 1 µM; IC50 [6]: < 10 µM; IC50 [9]: 0.25 to 1 µM; IC50 [12]: 0.25 to 1 µM; IC50 [13]: 0.25 to 1 µM; IC50 [14]: < 10 µM
COc1ccc(C[C@H]2NC[C@H](O)[C@H]2OC(=O)NCc2ccnnc2)cc1 [V187917, (2R,3S,4S)-4-hydroxy-2-[(4-methoxyphenyl)methyl]pyrrolidin-3-yl N-(pyridazin-4-ylmethyl)carbamate]	1 to 4 µM	0.25 to 1 µM	< 10 µM	0.25 to 1 µM	< 10 µM	0.25 to 1 µM	0.25 to 1 µM	< 0.25 µM	–	–	–	–	–	–	–	–	IC50 [15]: 1 to 4 µM; IC50 [16]: < 10 µM; IC50 ([17]; 2 hrs at 30° C.): < 10 µM
COc1ccc(C[C@H]2NC[C@H](O)[C@H]2OC(=O)NCc2ccnc(N)c2)cc1 [V187988, (2R,3S,4S)-4-hydroxy-2-[(4-methoxyphenyl)methyl]pyrrolidin-3-yl N-[(2-aminopyridin-4-yl)methyl]carbamate]	1 to 4 µM	0.25 to 1 µM	< 10 µM	0.25 to 1 µM	< 10 µM	0.25 to 1 µM	0.25 to 1 µM	0.25 to 1 µM	–	–	–	–	–	–	–	–	IC50 [15]: ≥ 4 µM; IC50 [16]: < 10 µM; IC50 ([17]; 2 hrs at 30° C.): < 10 µM
O=C(NCC[C@@H]1CCCN1)O[C@@H]1[C@@H](O)CN[C@@H]1Cc1ccc(-c2cnco2)cc1 [V192047, (2R,3S,4S)-4-hydroxy-2-{[4-(1,3-oxazol-5-yl)phenyl]methyl}pyrrolidin-3-yl N-{2-[(2S)-pyrrolidin-2-yl]ethyl}carbamate]	–	–	–	–	–	–	–	–	< 10 µM	< 10 µM	< 10 µM	< 10 µM	< 10 µM	< 10 µM	< 10 µM	< 10 µM	–
O=C(NCCC1CCNCC1)O[C@@H]1[C@@H](O)CN[C@@H]1Cc1ccc(-c2cnco2)cc1 [V192049, (2R,3S,4S)-4-hydroxy-2-{[4-(1,3-oxazol-5-yl)phenyl]methyl}pyrrolidin-3-yl N-[2-(piperidin-4-yl)ethyl]carbamate]	–	–	–	–	–	–	–	–	< 10 µM	< 10 µM	< 10 µM	< 10 µM	< 10 µM	< 10 µM	< 10 µM	< 10 µM	–
O=C(NCc1cccc(F)c1)O[C@@H]1[C@@H](O)CN[C@@H]1Cc1ccc(-c2cnc(C(F)(F)F)s2)cc1 [V192114, (2R,3S,4S)-4-hydroxy-2-({4-[2-(trifluoromethyl)-1,3-thiazol-5-yl]phenyl}methyl)pyrrolidin-3-yl N-[(3-fluorophenyl)methyl]carbamate]	–	–	–	–	–	–	–	–	> 30 µM	> 30 µM	> 30 µM	10 to 20 µM	> 30 µM	< 10 µM	< 10 µM	> 30 µM	–
O=C(NCc1cccc(C2CNC2)c1)O[C@@H]1[C@@H](O)CN[C@@H]1Cc1ccc(-c2cnco2)cc1 [V192154, (2R,3S,4S)-4-hydroxy-2-{[4-(1,3-oxazol-5-yl)phenyl]methyl}pyrrolidin-3-yl N-{[3-(azetidin-3-yl)phenyl]methyl}carbamate]	–	–	–	–	–	–	–	–	< 10 µM	< 10 µM	< 10 µM	< 10 µM	< 10 µM	< 10 µM	< 10 µM	< 10 µM	–
O=C(NCc1ccnc(N2CCC2)c1)O[C@@H]1[C@@H](O)CN[C@@H]1Cc1ccc(-c2cnco2)cc1 [V192160, (2R,3S,4S)-4-hydroxy-2-(4-(oxazol-5-yl)benzyl)pyrrolidin-3-yl ((2-(azetidin-1-yl)pyridin-4-yl)methyl)carbamate]	–	–	–	–	–	–	–	–	< 10 µM	< 10 µM	< 10 µM	< 10 µM	< 10 µM	< 10 µM	< 10 µM	< 10 µM	–
O=C(NCCOC(F)(F)F)O[C@@H]1[C@@H](O)CN[C@@H]1Cc1ccc(-c2cnco2)cc1 [V192265, (2R,3S,4S)-4-hydroxy-2-{[4-(1,3-oxazol-5-yl)phenyl]methyl}pyrrolidin-3-yl N-[2-(trifluoromethoxy)ethyl]carbamate]	–	–	–	–	–	–	–	–	< 10 µM	< 10 µM	< 10 µM	< 10 µM	< 10 µM	< 10 µM	< 10 µM	< 10 µM	–
